Experiments:
[1] = target: T1, Induced myeloid leukemia cell differentiation protein Mcl-1 (Homo sapiens, UniProt Q07820); experiment: Binding affinity to Mcl-1 (unknown origin) pre-incubated for 30 mins followed by addition FAM-peptide further incubated for 20 mins by fluorescence polarization-based binding assay
[2] = target: Bcl-2-like protein 1 (Homo sapiens, UniProt Q07817); experiment: Binding affinity to Bcl-xL (unknown origin) pre-incubated for 30 mins followed by addition FAM-peptide further incubated for 20 mins by fluorescence polarization-based binding assay
[3] = target: Apoptosis regulator Bcl-2 (Homo sapiens, UniProt P10415); experiment: Binding affinity to Bcl-2 (unknown origin) pre-incubated for 30 mins followed by addition FAM-peptide further incubated for 20 mins by fluorescence polarization-based binding assay
[4] = target: T2, Bcl-2-related protein A1 (Homo sapiens, UniProt Q16548); experiment: Binding affinity to Bfl-1 (unknown origin) pre-incubated for 30 mins followed by addition FAM-peptide further incubated for 20 mins by fluorescence polarization-based binding assay
T2 sequence (Q16548 whole entry): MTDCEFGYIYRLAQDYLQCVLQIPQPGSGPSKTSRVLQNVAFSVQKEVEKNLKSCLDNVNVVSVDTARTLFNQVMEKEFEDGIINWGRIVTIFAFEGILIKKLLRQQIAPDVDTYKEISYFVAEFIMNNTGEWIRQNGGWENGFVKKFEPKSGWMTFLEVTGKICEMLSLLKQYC

[5] = system: HL-60; experiment: Antiproliferative activity against human HL-60 cells assessed as growth inhibition measured after 72 hrs by CCK-8 assay; assay type: functional, cell-based; conditions: HL-60, 72 h
[6] = Metabolic stability in rat liver microsomes assessed as half life by LC-MS/MS analysis; assay type: ADME, Microsome; conditions: liver microsomes
[7] = target: T1, Induced myeloid leukemia cell differentiation protein Mcl-1; experiment: Binding affinity to human MCL-1 measured by competition against fluorescently labelled BH3 - Bid measured after 6 hrs by fluorescent polarization assay

Chain of Bcl-2-like protein 1 (Q07817 whole entry): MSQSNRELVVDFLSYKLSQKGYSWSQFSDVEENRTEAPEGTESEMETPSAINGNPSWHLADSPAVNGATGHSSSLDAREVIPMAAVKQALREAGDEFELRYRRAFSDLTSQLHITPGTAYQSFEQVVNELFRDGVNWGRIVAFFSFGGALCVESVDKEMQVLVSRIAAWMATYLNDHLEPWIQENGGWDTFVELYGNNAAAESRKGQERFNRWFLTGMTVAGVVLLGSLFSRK
Chain of Apoptosis regulator Bcl-2 (P10415 whole entry): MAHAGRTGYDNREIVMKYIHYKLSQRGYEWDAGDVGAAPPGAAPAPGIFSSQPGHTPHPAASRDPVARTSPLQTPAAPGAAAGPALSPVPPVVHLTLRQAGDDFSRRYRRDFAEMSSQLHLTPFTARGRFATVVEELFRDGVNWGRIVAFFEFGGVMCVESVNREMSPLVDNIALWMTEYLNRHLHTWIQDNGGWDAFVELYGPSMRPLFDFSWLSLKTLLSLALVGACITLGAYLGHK
T1 sequence (Q07820 whole entry): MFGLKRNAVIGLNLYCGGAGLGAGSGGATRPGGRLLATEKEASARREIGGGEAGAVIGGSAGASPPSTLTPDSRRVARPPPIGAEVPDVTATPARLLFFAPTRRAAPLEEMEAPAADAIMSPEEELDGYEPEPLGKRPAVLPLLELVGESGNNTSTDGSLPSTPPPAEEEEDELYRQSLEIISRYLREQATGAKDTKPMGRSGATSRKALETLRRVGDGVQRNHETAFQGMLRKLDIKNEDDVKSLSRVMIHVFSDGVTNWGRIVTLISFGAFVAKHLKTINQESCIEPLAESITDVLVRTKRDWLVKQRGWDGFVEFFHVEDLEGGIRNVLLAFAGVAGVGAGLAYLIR

Cc1cc(OCCCc2c(C(=O)O)n(CCN3CCOCC3)c3c(-c4ccccc4Cn4cc(CCNC(=O)c5ccc(Cl)cc5)c5ccccc54)cccc23)cc(C)c1Cl
Ki ([1]; read-out: Ki): 0.045 µM
IC50 [2]: > 100 µM
IC50 [3]: > 100 µM
IC50 [4]: > 10 µM
IC50 [5]: 7.58 µM

Cc1cc(OCCCc2c(C(=O)O)n(CCN3CCOCC3)c3c(-c4ccccc4Cn4cc(CCNC(=O)c5cccc(Br)c5)c5ccccc54)cccc23)cc(C)c1Cl
Ki ([1]; read-out: Ki): 0.087 µM
IC50 [5]: 12.3 µM

Cc1ccc2c(ccn2Cc2c(-c3cccc4c(CCCOc5cc(C)c(Cl)c(C)c5)c(C(=O)O)[nH]c34)c(C(=O)NCC3CC3)nn2C)c1
Ki ([1]; read-out: Ki): 0.15 µM
IC50 [5]: 8.82 µM

COc1ccccc1OCc1c(-c2cccc3c(CCCOc4cc(C)c(Cl)c(C)c4)c(C(=O)O)[nH]c23)c(C(=O)NCC2CC2)nn1C
Ki ([1]; read-out: Ki): 0.24 µM
IC50 [5]: 28.8 µM

Cc1cc(OCCCc2c(C(=O)O)n(CCN3CCOCC3)c3c(-c4ccccc4Cn4cc(CCNC(=O)c5ccc(C=O)cc5)c5ccccc54)cccc23)cc(C)c1Cl
Ki ([1]; read-out: Ki): 0.027 µM
IC50 [5]: 35.1 µM

Cc1cc(OCCCc2c(C(=O)O)[nH]c3c(-c4c(C(=O)NCC5CC5)nn(C)c4Cn4cc(C)c5ccccc54)cccc23)cc(C)c1Cl
Ki ([1]; read-out: Ki): 0.1 µM
IC50 [5]: 10.5 µM

Cc1cc(OCCCc2c(C(=O)O)[nH]c3c(-c4c(C(=O)NCC5CC5)nn(C)c4Cn4cc(CCNC(=O)OC(C)(C)C)c5ccccc54)cccc23)cc(C)c1Cl
Ki ([1]; read-out: Ki): 0.15 µM
IC50 [5]: 19.3 µM

Cc1cc(OCCCc2c(C(=O)O)n(CCN3CCOCC3)c3c(-c4ccccc4Cn4cc(CCNC(=O)c5ccccc5C(F)(F)F)c5ccccc54)cccc23)cc(C)c1Cl
Ki ([1]; read-out: Ki): 0.056 µM
IC50 [5]: 14.3 µM

Cc1cc(OCCCc2c(C(=O)O)n(CCN3CCOCC3)c3c(-c4ccccc4Cn4ccc5ccccc54)cccc23)cc(C)c1Cl
Ki ([1]; read-out: Ki): 0.15 µM
IC50 [5]: 21.2 µM

Cc1cc(OCCCc2c(C(=O)O)[nH]c3c(-c4ccccc4CN(C)c4ccccc4)cccc23)cc(C)c1Cl
Ki ([1]; read-out: Ki): 0.65 µM
IC50 [5]: 31.9 µM

Cc1ccc2c(ccn2Cc2ccccc2-c2cccc3c(CCCOc4cc(C)c(Cl)c(C)c4)c(C(=O)O)n(CCN4CCOCC4)c23)c1
Ki ([1]; read-out: Ki): 0.16 µM
IC50 [5]: 39.1 µM

Cc1cc(OCCCc2c(C(=O)O)n(CCN3CCOCC3)c3c(-c4ccccc4Cn4cc(CCNC(=O)CC(F)(F)F)c5ccccc54)cccc23)cc(C)c1Cl
Ki ([1]; read-out: Ki): 0.06 µM
IC50 [5]: 18.3 µM

Cc1cc(OCCCc2c(C(=O)O)[nH]c3c(-c4c(C(=O)NCC5CC5)nn(C)c4COc4ccc(OC(F)(F)F)cc4)cccc23)cc(C)c1Cl
Ki ([1]; read-out: Ki): 0.26 µM
IC50 [5]: 32.2 µM

CC(C)=CCC[C@]1(C)C=Cc2c(O)c3c(c(CC=C(C)C)c2O1)O[C@]12C(=C[C@@H]4C[C@H]1C(C)(C)O[C@@]2(C/C=C(/C)C(=O)O)C4=O)C3=O [GAMBOGIC ACID]
IC50 [2]: 0.5 µM
IC50 [3]: 0.16 µM
IC50 [4]: 0.5 µM

Cc1cc(OCCCc2c(C(=O)O)[nH]c3c(-c4ccccc4Cn4ccc5ccccc54)cccc23)cc(C)c1Cl
Ki ([1]; read-out: Ki): 0.24 µM
IC50 [5]: 44.1 µM

COc1ccc(OCc2c(-c3cccc4c(CCCOc5cc(C)c(Cl)c(C)c5)c(C(=O)O)[nH]c34)c(C(=O)NCC3CC3)nn2C)cc1
Ki ([1]; read-out: Ki): 0.22 µM
IC50 [5]: 30.5 µM

Cc1cc(OCCCc2c(C(=O)O)[nH]c3c(-c4c(C(=O)NCC5CC5)nn(C)c4COc4ccccc4)cccc23)cc(C)c1Cl
Ki ([1]; read-out: Ki): 0.34 µM
IC50 [5]: 47.8 µM

Cc1cc(OCCCc2c(C(=O)O)n(CCN3CCOCC3)c3c(-c4ccccc4Cn4cc(CCNC(=O)c5ccncc5F)c5ccccc54)cccc23)cc(C)c1Cl
Ki ([1]; read-out: Ki): 0.055 µM
IC50 [5]: 12.6 µM

Cc1cc(OCCCc2c(C(=O)O)n(CCN3CCOCC3)c3c(-c4ccccc4Cn4ccc5c(C)cccc54)cccc23)cc(C)c1Cl
Ki ([1]; read-out: Ki): 0.12 µM
IC50 [5]: 15.1 µM

Cc1cc(OCCCc2c(C(=O)O)n(CCN3CCOCC3)c3c(-c4ccccc4Cn4cc(CCNC(=O)c5c(C)cccc5F)c5ccccc54)cccc23)cc(C)c1Cl
Ki ([1]; read-out: Ki): 0.043 µM
IC50 [5]: 14.2 µM

Cc1ccccc1C(=O)NCCc1cn(Cc2ccccc2-c2cccc3c(CCCOc4cc(C)c(Cl)c(C)c4)c(C(=O)O)n(CCN4CCOCC4)c23)c2ccccc12
Ki ([1]; read-out: Ki): 0.059 µM
IC50 [5]: 10.1 µM

COc1cccc(OCc2c(-c3cccc4c(CCCOc5cc(C)c(Cl)c(C)c5)c(C(=O)O)[nH]c34)c(C(=O)NCC3CC3)nn2C)c1
Ki ([1]; read-out: Ki): 0.37 µM
IC50 [5]: > 50 µM

COc1ccc(CN(C)C(=O)c2nn(C)c(COc3ccc(OC)cc3)c2-c2cccc3c(CCCOc4cc(C)c(Cl)c(C)c4)c(C(=O)O)[nH]c23)cc1
Ki ([1]; read-out: Ki): 0.53 µM
IC50 [5]: 28 µM

COc1ccc(OCc2c(-c3cccc4c(CCCOc5cc(C)c(Cl)c(C)c5)c(C(=O)O)[nH]c34)c(C(=O)NCC3CCOCC3)nn2C)cc1
Ki ([1]; read-out: Ki): 0.49 µM
IC50 [5]: 35 µM

Cc1cc(OCCCc2c(C(=O)O)n(CCN3CCOCC3)c3c(-c4ccccc4Cn4cc(CCNC(=O)/C=C/c5ccc(Cl)c(Cl)c5)c5ccccc54)cccc23)cc(C)c1Cl
Ki [1]: Not Active
IC50 [5]: > 50 µM

Cc1cc(OCCCc2c(C(=O)O)[nH]c3c(-c4c(C(=O)NCC5CC5)nn(C)c4COc4ccc(C=O)cc4)cccc23)cc(C)c1Cl
Ki ([1]; read-out: Ki): 0.18 µM
IC50 [5]: 34.9 µM

COc1cccc2c1ccn2Cc1ccccc1-c1cccc2c(CCCOc3cc(C)c(Cl)c(C)c3)c(C(=O)O)n(CCN3CCOCC3)c12
Ki ([1]; read-out: Ki): 0.095 µM
IC50 [5]: 14.1 µM

Cc1cc(OCCCc2c(C(=O)O)n(CCN3CCOCC3)c3c(-c4ccccc4Cn4cc(CCNC(=O)c5ccc(F)cc5)c5ccccc54)cccc23)cc(C)c1Cl
Ki ([1]; read-out: Ki): 0.037 µM
IC50 [2]: > 100 µM
IC50 [3]: > 100 µM
IC50 [4]: > 10 µM
IC50 [5]: 7.96 µM

Cc1cc(OCCCc2c(C(=O)O)n(CCN3CCOCC3)c3c(-c4ccccc4Cn4cc(CCNC(=O)c5ccccc5Br)c5ccccc54)cccc23)cc(C)c1Cl
Ki ([1]; read-out: Ki): 0.068 µM
IC50 [5]: 16.8 µM

COc1ccc2c(ccn2Cc2ccccc2-c2cccc3c(CCCOc4cc(C)c(Cl)c(C)c4)c(C(=O)O)n(CCN4CCOCC4)c23)c1
Ki ([1]; read-out: Ki): 0.15 µM
IC50 [5]: 16.1 µM

Cc1cc(OCCCc2c(C(=O)O)n(CCN3CCOCC3)c3c(-c4ccccc4Cn4cc(CCNC(=O)c5ccc(Br)cc5)c5ccccc54)cccc23)cc(C)c1Cl
Ki ([1]; read-out: Ki): 0.051 µM
IC50 [5]: 30.7 µM

Cc1cc(OCCCc2c(C(=O)O)n(CCN3CCOCC3)c3c(-c4ccccc4Cn4cc(CCNC(=O)c5ccoc5)c5ccccc54)cccc23)cc(C)c1Cl
Ki ([1]; read-out: Ki): 0.058 µM
IC50 [5]: 29.9 µM

Cc1cc(OCCCc2c(C(=O)O)n(CCN3CCOCC3)c3c(-c4ccccc4Cn4cc(CCNS(=O)(=O)c5ccc(F)cc5)c5ccccc54)cccc23)cc(C)c1Cl
Ki ([1]; read-out: Ki): 0.048 µM
IC50 [5]: 8.91 µM

Cc1cc(OCCCc2c(C(=O)O)n(CCN3CCOCC3)c3c(-c4ccccc4Cn4cc(CCNC(=O)CCC(F)(F)F)c5ccccc54)cccc23)cc(C)c1Cl
Ki ([1]; read-out: Ki): 0.098 µM
IC50 [5]: 12.8 µM

C=CC(=O)NCCc1cn(Cc2ccccc2-c2cccc3c(CCCOc4cc(C)c(Cl)c(C)c4)c(C(=O)O)n(CCN4CCOCC4)c23)c2ccccc12
Ki ([1]; read-out: Ki): 0.19 µM
IC50 [5]: 31.6 µM

Cc1cc(OCCCc2c(C(=O)O)n(CCN3CCOCC3)c3c(-c4ccccc4Cn4cc(CCNCC(N)=O)c5ccccc54)cccc23)cc(C)c1Cl
Ki ([1]; read-out: Ki): 1.2 µM
IC50 [5]: > 50 µM

Cc1cc(OCCCc2c(C(=O)O)n(CCN3CCOCC3)c3c(-c4ccccc4Cn4cc(CCNC(=O)c5ccncn5)c5ccccc54)cccc23)cc(C)c1Cl
Ki ([1]; read-out: Ki): 0.12 µM
IC50 [5]: 28.4 µM

O=C(O)Cc1ccccc1Nc1c(Cl)cccc1Cl [DICLOFENAC]
half-life [6]: 11.7 min

COc1ccc(OCc2c(-c3cccc4c(CCCOc5cc(C)c(Cl)c(C)c5)c(C(=O)O)[nH]c34)c(C(=O)N(C)CCNC(=O)OC(C)(C)C)nn2C)cc1
Ki ([1]; read-out: Ki): 0.26 µM
IC50 [5]: > 50 µM

COc1ccc(OCc2c(-c3cccc4c(CCCOc5cc(C)c(Cl)c(C)c5)c(C(=O)O)[nH]c34)c(C(=O)Nc3ccccc3F)nn2C)cc1
Ki ([1]; read-out: Ki): 0.39 µM
IC50 [5]: 28.3 µM

Cc1cc(OCCCc2c(C(=O)O)n(CCN3CCOCC3)c3c(-c4ccccc4Cn4cc(CCNC(=O)c5ccc(OC(F)(F)F)cc5)c5ccccc54)cccc23)cc(C)c1Cl
Ki ([1]; read-out: Ki): 0.029 µM
IC50 [2]: > 100 µM
IC50 [3]: > 100 µM
IC50 [4]: > 10 µM
IC50 [5]: 7.92 µM

Cc1cc(OCCCc2c(C(=O)O)n(CCN3CCOCC3)c3c(-c4ccccc4Cn4cc(C)c5ccccc54)cccc23)cc(C)c1Cl
Ki ([1]; read-out: Ki): 0.089 µM
IC50 [5]: 15.7 µM

Cc1cc(OCCCc2c(C(=O)O)[nH]c3ccccc23)cc(C)c1Cl
IC50 [5]: > 50 µM

COc1ccc(OCc2c(-c3cccc4c(CCCOc5cc(C)c(Cl)c(C)c5)c(C(=O)O)[nH]c34)c(C(=O)NC3CCOCC3)nn2C)cc1
Ki ([1]; read-out: Ki): 0.84 µM
IC50 [5]: 21.1 µM

CC1(C)CC[C@@H](OC(=O)/C=C/c2ccccc2)C2C(C=O)C(C=O)C[C@H](O)[C@H]21 (some centres not stated)
Ki [7]: 0.3 µM

Source: ChEMBL document CHEMBL5584309, “Discovery of Novel Mcl-1 Inhibitors with a 3-Substituted-1H-indole-1-yl Moiety Binding to the P1-P3 Pockets to Induce Apoptosis in Acute Myeloid Leukemia Cells” (J Med Chem, 2024)
